Earlier results in patent publication US20220313684A1, “PHARMACEUTICAL COMPOSITION COMPRISING IRINOTECAN FREE BASE FOR ORAL ADMINISTRATION” (DAE HWA PHARMA. CO., LTD., priority 2019, published 2022).

Settings: oral administration of irinotecan; reported (EP 2328557)

CCc1c2c(nc3ccc(OC(=O)N4CCC(N5CCCCC5)CC4)cc13)-c1cc3c(c(=O)n1C2)COC(=O)[C@]3(O)CC [irinotecan, (S)-4,11-diethyl-3,4,12,14-tetrahydro-4-hydroxy-3,14-dioxo-1H-pyrano[3′,4′:6,7]-indolizino[1,2-b]quinolin-9-yl [1,4′bipiperidine]-1′-carboxylate]
bioavailability upon oral administration: 9%
